Assay results taken from patent US6593511B1, “Models of chronic and acute inflammatory diseases” (Bioseek, Inc., priority 2000, dated 2003).

Tests used:
psoriatic scid/scid mice = experiment: Treatment of established chronic skin inflammation (psoriasis) in scid/scid mice after transfer of CD4+/CD25- T cells and LPS; ear thickness and histology; format: in vivo, mouse
Description: Mice. Female Balb/c mice (donor mice) were purchased from Jackson Labs (Bar Harbor, Me.) or similar source, and C.B-17/Icr scid/scid (recipient mice) were purchased from Taconic (Germantown, N.Y.) or Charles River. All mice were housed in a specific pathogen free environment and were used between 4-8 wk of age. Mice were housed 2-5 per microisolator. All scid/scid mice were handled with gloves under a class II hood, fed sterile food and water ad libitum, and maintained in sterilized microisolators that are changed twice weekly. Donor mice were housed in conventional cages that were changed weekly.
Induction of chronic skin inflammation. Briefly, splenocytes were collected from 5-10 week old donor mice (Balb/c) and donor population was either enriched for CD4+ and depleted of CD25+ cells, or depleted of CD25+ cells only. The collected cell population was injected subcutaneously (s.c.) into C.B-17/Icr scid/scid mice, aged 4-8 weeks (usually 3×10^5 to 5×10^5 cells per mouse in 200-400 μL). […]
Cell Selection: Balb/c mouse spleens were collected and homogenized by pressing through 100 μ cell strainer (Falcon) and suspended in cold PBS supplemented with 10% FBS. […] The resultant cell quantities were 5-8 million cells per spleen. […]
The thickness of the skin on the ear was measured using a Dyer micrometer. […]

scid/scid mice = experiment: Effect of co-factors on disease induction in the scid/scid CD4+/CD25- transfer model; format: in vivo, mouse; conditions: 20 μg s.c. on day one after cell transfer
Experimental: Induction of chronic skin inflammation. Briefly, splenocytes were collected from 5-10 week old donor mice (Balb/c) and donor population was either enriched for CD4+ and depleted of CD25+ cells, or depleted of CD25+ cells only. The collected cell population was injected subcutaneously (s.c.) into C.B-17/Icr scid/scid mice, aged 4-8 weeks (usually 3×10^5 to 5×10^5 cells per mouse in 200-400 μL). A systemic (s.c., i.p. or i.v.) injection of an immuno-modulating agent was given 24 hours following cell transfer. Alternatively, these co-injections were given at the same time to one week after. The co-injection was, alternatively, repeated every other day or once a week for the entire course of the experiment.
After 24 hours all recipient mice were given a co-injection of 20 μg LPS (or 10 μg SEB) s.c. Disease causing T cells then proliferated and began to induce inflammation over a period of 4 weeks
The thickness of the skin on the ear was measured using a Dyer micrometer. The micrometer was first modified to better perform in the measurement of soft tissue. The contact pads are reduced to 4 mm, and the spring tension is reduced to <3 lbs.
Co-factor injections are important for their mitogenic properties. […]
The effect of different co-factors on disease induction was assessed. […]

Substance	skin thickness after treatment (psoriatic scid/scid mice; after 8 days of 40 mg/kg twice/day, p=2.01×10^−6) [μm]	skin thickness before treatment (psoriatic scid/scid mice; baseline before 40 mg/kg twice/day for 8 days) [μm]	incidence of disease (scid/scid mice; 5/5) [%]	average ear thickness (scid/scid mice; week 7, n=5 mice, +/- SEM, 30 μm+/−1.2 without co-factor, p=3.6×10^−3) [μm]
methylprednisone	22.4	33.7	–	–
lipopolysaccharide [LPS]	–	–	100	36.4
